One data set is described as follows: in vitro. The format is cell-based. As to conditions: for CC50: African green monkey; for CC50 at 7 days: human. How it is done: Anti-human cytomegalovirus (HCMV) activity is determined in a yield reduction assay utilizing a recombinant HCMV (RC256) that produces β-gal (Spaete, R. R.; Mocarski, E. S. Proceedings of the National Academy of Sciences USA 84:7213-7217, 1987). Primary human diploid fibroblasts (HFF cells) are infected at an moi of 0.01 with RC256, and serial dilutions of the compound in DMSO are added. The final concentration of DMSO in all wells is 1%. The infection is allowed to proceed for 7 days at which time the β-gal activity in cell lysates is measured. Activity in wells containing compound is compared to control wells and percent inhibition determined.
Cellular toxicity assays: Cellular toxicity is measured in HFF cells. Cells are plated in 96 well plates at 1×10^4 cells/well. Serial dilutions of compounds are added to the wells in DMSO, with the final concentration of DMSO in all wells at 1%, in a total volume of 200 μL. The plates are maintained in a 37° C. incubator for 7 days. 50 μL of a solution of XTT (sodium-3′[1-(phenyl-amino-carbonyl)-3,-tetrazolium]-bis(bis(4-methoxy-6-nitro)-benzene sulfonic acid hydrate) (3×10^−4 mg/ml) is added to each well, and the plates returned to the incubator for 4 hours, after which the A450 (absorbance at wavelength of 450 nm) for each well is measured in a plate reader. (Roehm, N. W., et al J. Immunol. Meth. 142:257-265, 1991). Toxicity is determined by comparison of the OD (optical density) of a well containing compound to the OD of wells containing DMSO only.

Data set [1] concerns herpes simplex virus 1 (HSV). Briefly: microbe, parasite or virus in culture. It counts as cell-based. As to conditions: for pEC50: Human alphaherpesvirus 1, Vero; for TI (EC50/TC50): therapeutic index, HSV-1, Vero cells. The method, then: Vero (African Green Monkey kidney) cells are infected at a multiplicity of infection of 0.01 with the virus, and serial dilutions of the compound in dimethyl sulfoxide (DMSO) are added. The final concentration of DMSO in all wells is 1%. DMSO is added to control wells. The infection is allowed to proceed for 2 days at which time the β-gal activity in cell lysates is measured. Activity in wells containing compound is compared to control wells and percent inhibition determined.

The test system of data set [2] is human cytomegalovirus (HCMV). Nature of the data set: microbe, parasite or virus in culture. It counts as cell-based. Conditions: Human betaherpesvirus 5, HFF. How it is done:
Primary human diploid fibroblasts (HFF cells) are infected at an moi of 0.01 with RC256, and serial dilutions of the compound in DMSO are added. The final concentration of DMSO in all wells is 1%. The infection is allowed to proceed for 7 days at which time the β-gal activity in cell lysates is measured. Activity in wells containing compound is compared to control wells and percent inhibition determined.

pEC50: −log10 of the molar value. Some results are limits rather than exact numbers.

By CC50 is commonly meant the concentration at which the toxic effect on the cells reaches its halfway point. By pEC50 is commonly meant the EC50 on a negative log10 scale, so that one unit is a factor of ten. The molecule `COc1ccc(CNc2cccc3c2oc2ccccc23)cc1` [Example 150, Dibenzofuran-4-yl-(4-methoxy-benzyl)-amine] displayed a CC50 in the data set “in vitro” of more than 100000 nM. In data set [1], the pEC50 is 6.07 and the “TI (EC50/TC50)” value was more than 118.

What is called melting point is the temperature, or range, at which the solid turns liquid. For the molecule `c1ccc(Oc2cccc(CNc3ccc4oc5ccccc5c4c3)c2)cc1`, the melting point was 93 to 94 °C.

The molecule `c1ccc2c(c1)oc1ccc(NCc3ccc4c(c3)OCO4)cc12` came in with a melting point of 85 to 86 °C.

In turn, `Cc1ccccc1CNc1ccc2oc3ccccc3c2c1` came in with a melting point of 84 to 85 °C.

In “in vitro”, `O=[N+]([O-])c1ccc(CNc2ccc3oc4ccccc4c3c2)cc1` [Example 60, Dibenzofuran-2-yl-(4-nitro-benzyl)-amine] came in with a CC50 of more than 100000 nM and a CC50 at 7 days of more than 100000 nM. In data set [1], the pEC50 is 6.30 and the “TI (EC50/TC50)” value is reported as more than 200. Also, the pEC50 in data set [2] was 5.89.

`c1ccc(Oc2ccc(CNc3ccc4oc5ccccc5c4c3)cc2)cc1` displayed a melting point of 91 to 93 °C.

In “in vitro”, `COc1ccc(CNc2ccc3oc4ccc(Cl)cc4c3c2)cc1F` [Example 139, (8-Chloro-dibenzofuran-2-yl)-(3-fluoro-4-methoxy-benzyl)-amine] registered a CC50 of more than 100000 nM. In data set [1], the pEC50 is 6.40 and the “TI (EC50/TC50)” value is given as more than 250.

Consider `Nc1nc(O)c2ncn(COC(CO)CO)c2n1` [Ganciclovir], for which the CC50 at 7 days in the data set “in vitro” was more than 100000 nM. The same molecule gave a pEC50 in data set [2] of 5.59.

In the case of `c1ccc2c(c1)oc1ccc(NCc3ccsc3)cc12`, the melting point is 62 to 63 °C.

For `c1ccc(CNc2ccc3oc4ccccc4c3c2)cc1`, the melting point fell in the range of 81 to 82 °C.

As for `CCn1c2ccccc2c2cc(NCc3cccc(F)c3C)ccc21` [Example 217, (9-Ethyl-9H-carbazol-3-yl)-(3-fluoro-2-methyl-benzyl)-amine], the CC50 in the data set “in vitro” was more than 100000 nM. Moreover, in data set [1], the pEC50 is 6.49 and the “TI (EC50/TC50)” value is reported as more than 313.

For `c1ccc2c(c1)CN(c1ccc3oc4ccccc4c3c1)C2`, the melting point was in the range of 193 to 195 °C.

The molecule `FC(F)(F)Oc1ccc(CNc2ccc3oc4ccccc4c3c2)cc1` yielded a melting point of 75 to 77 °C.

The molecule `CCCC(Cc1ccccc1)Nc1ccc2oc3ccccc3c2c1` (stereo not drawn) [Example 65, (1-Benzyl-butyl)-dibenzofuran-2-yl-amine] returned a CC50 at 7 days in the data set “in vitro” of more than 100000 nM. In data set [2], this molecule showed a pEC50 of 5.52.

On to `O=C1c2ccccc2C(=O)N1c1ccc2oc3ccccc3c2c1`, for which the melting point fell in the range of 217 to 218 °C.

`c1cnc2c(c1)Oc1cc(NCc3cccc4ccccc34)ccc1S2` [Example 93, Naphthalene-1-ylmethyl-(10-oxa-9-thia-1-aza-anthracen-6-yl)-amine] came in with a CC50 in the data set “in vitro” of more than 100000 nM. Also, in data set [1], the pEC50 is 5.89 and the “TI (EC50/TC50)” value is given as more than 77.

On to `Oc1ccccc1CNc1ccc2oc3ccccc3c2c1`, for which the melting point lay in the range of 145 to 147 °C.

Regarding `CSc1ccc(CNc2ccc3oc4ccccc4c3c2)cc1` [Example 61, Dibenzofuran-2-yl-(4-methylsulfanyl-benzyl)-amine], the melting point lay within 103 to 104 °C. In the data set “in vitro”, this molecule returned a CC50 at 7 days of more than 100000 nM. In data set [2], this molecule gave a pEC50 of 5.54.

In turn, `Fc1ccc(CNc2ccc3c(c2)Oc2ccccc2S3)c(F)c1` [Example 208, (2,4-Difluoro-benzyl)-phenoxathiin-3-yl-amine] came in with a CC50 in the data set “in vitro” of more than 100000 nM. In data set [1], the pEC50 was 6.59 and the “TI (EC50/TC50)” value was more than 385.

For the molecule `FC(F)(F)c1ccc(CNc2ccc3oc4ccccc4c3c2)cc1` [Example 57, Dibenzofuran-2-yl-(4-trifluoromethyl-benzyl)-amine], the melting point was 89 to 90 °C. In “in vitro”, this molecule had a CC50 of more than 100000 nM and a CC50 at 7 days of more than 100000 nM. For the same molecule, in data set [1], the pEC50 was 6.09 and the “TI (EC50/TC50)” value is more than 124. This molecule showed a pEC50 in data set [2] of 5.77.

In turn, `CC(Nc1ccc2oc3ccccc3c2c1)c1ccccc1` (stereo not drawn) came in with a melting point of 94 to 95 °C.

In turn, `COc1cc(CNc2ccc3oc4ccccc4c3c2)cc(OC)c1` [Example 56, Dibenzofuran-2-yl-(3,5-dimethoxy-benzyl)-amine] returned a melting point of 87 to 88 °C. In addition, in the data set “in vitro”, the CC50 is more than 100000 nM. For the same molecule, in data set [1], the pEC50 is 6.15 and the “TI (EC50/TC50)” value is listed as more than 143.

The values are drawn from US6800656B2, “Tricyclic compounds and method of treating herpes virus” (Warner Lambert Company, priority 2000, dated 2004).
